Several values for one entry are separate records, joined by “and”; a condition that tells them apart may be missing. Identical values can stand only once. Inconclusive results and toxic doses are left out.
System: CD2F1 mice, L1210 leukemia ip, survival T/C
Test: NCI In Vivo Anticancer Drug Screen. Data for tumor model L1210 Leukemia (intraperitoneal) in CD2F1 (CDF1) mice
Conditions: higher = longer survival
Procedure, shortened: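 Mice carrying a transplanted tumor received test compound or vehicle alone. The value is the measurement in the treated group divided by that in the vehicle-treated control group.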

[1] = endpoint: mean survival time, dose: 100.0 mg/kg/injection, schedule: Q04DX003 (ip), vehicle: saline with Tween-80
[2] = endpoint: mean survival time, dose: 200.0 mg/kg/injection, schedule: Q04DX003 (ip), vehicle: saline with Tween-80
[3] = endpoint: mean survival time, dose: 400.0 mg/kg/injection, schedule: Q04DX003 (ip), vehicle: saline with Tween-80

Q: What does the source list for `OCC1OC(n2ncc3c2nnn2ncnc32)C(O)C1O` (stereo not given)?
A: T/C (endpoint: mean survival time, dose: 25.0 mg/kg/injection, schedule: Q01DX005 (ip), vehicle: water): 92 % of control; T/C (endpoint: mean survival time, dose: 50.0 mg/kg/injection, schedule: Q01DX005 (ip), vehicle: water): 99 % of control; T/C (endpoint: mean survival time, dose: 100.0 mg/kg/injection, schedule: Q01DX005 (ip), vehicle: water): 94 % of control; T/C (endpoint: mean survival time, dose: 200.0 mg/kg/injection, schedule: Q01DX005 (ip), vehicle: water): 87 % of control; T/C (endpoint: mean survival time, dose: 400.0 mg/kg/injection, schedule: Q01DX005 (ip), vehicle: water): 113 % of control

Q: `C=C1N(c2ccccc2)C(=O)OC1(C)C` was tested. Which T/C (endpoint: mean survival time, dose: 100.0 mg/kg/injection, schedule: Q04DX002 (ip), vehicle: saline with Tween-80) did it give?
A: 112 % of control

Q: And the T/C (endpoint: mean survival time, dose: 200.0 mg/kg/injection, schedule: Q04DX002 (ip), vehicle: saline with Tween-80)?
A: 112 % of control

Q: And the T/C (endpoint: mean survival time, dose: 400.0 mg/kg/injection, schedule: Q04DX002 (ip), vehicle: saline with Tween-80)?
A: 122 % of control

Q: For `C/C(=N/NC(N)=S)c1ccc2ccccc2c1`, which T/C (endpoint: mean survival time, dose: 6.25 mg/kg/injection, schedule: Q01DX009 (ip), vehicle: saline with Tween-80) is on record?
A: 103 % of control

Q: What about the T/C (endpoint: mean survival time, dose: 12.5 mg/kg/injection, schedule: Q01DX009 (ip), vehicle: saline with Tween-80) of the same compound?
A: 115 % of control

Q: What about the T/C (endpoint: mean survival time, dose: 25.0 mg/kg/injection, schedule: Q01DX009 (ip), vehicle: saline with Tween-80) of the same compound?
A: 122 % of control

Q: And the T/C (endpoint: mean survival time, dose: 50.0 mg/kg/injection, schedule: Q01DX009 (ip), vehicle: saline with Tween-80)?
A: 89 % of control

Q: Which results are given for `O=P(c1ccccc1)(c1ccccc1)c1ccccc1` (tested in a mixture with another compound)?
A: T/C (endpoint: mean survival time, dose: 12.5 mg/kg/injection, schedule: Q01DX009 (ip), vehicle: other): 100 % of control; T/C (endpoint: mean survival time, dose: 25.0 mg/kg/injection, schedule: Q01DX009 (ip), vehicle: other): 100 % of control; T/C (endpoint: mean survival time, dose: 50.0 mg/kg/injection, schedule: Q01DX009 (ip), vehicle: other): 101 % of control; T/C (endpoint: mean survival time, dose: 100.0 mg/kg/injection, schedule: Q01DX009 (ip), vehicle: other): 96 % of control; T/C (endpoint: mean survival time, dose: 200.0 mg/kg/injection, schedule: Q01DX009 (ip), vehicle: other): 103 % of control

Q: What does the source list for `N[C@H](C(=O)O)[C@@H]1CC(Cl)=NO1`?
A: T/C (endpoint: mean survival time, dose: 0.5 mg/kg/injection, schedule: Q01DX009 (ip), vehicle: saline): 113 % of control; T/C (endpoint: mean survival time, dose: 0.78 mg/kg/injection, schedule: Q01DX009 (ip), vehicle: saline): 115 % of control; T/C (endpoint: mean survival time, dose: 1.0 mg/kg/injection, schedule: Q01DX009 (ip), vehicle: saline): 122 % of control; T/C (endpoint: mean survival time, dose: 2.0 mg/kg/injection, schedule: Q01DX009 (ip), vehicle: saline): 124 % of control; T/C (endpoint: mean survival time, dose: 3.0 mg/kg/injection, schedule: Q01DX009 (ip), vehicle: saline): 167 % of control; T/C (endpoint: mean survival time, dose: 3.12 mg/kg/injection, schedule: Q01DX009 (ip), vehicle: saline): 153 % of control; T/C (endpoint: mean survival time, dose: 6.0 mg/kg/injection, schedule: Q01DX009 (ip), vehicle: saline): 165 % of control; T/C (endpoint: mean survival time, dose: 6.25 mg/kg/injection, schedule: Q01DX009 (ip), vehicle: saline): 151 % of control and 156 % of control; T/C (endpoint: mean survival time, dose: 8.0 mg/kg/injection, schedule: Q01DX009 (ip), vehicle: saline): 157 % of control; T/C (endpoint: mean survival time, dose: 12.0 mg/kg/injection, schedule: Q01DX009 (ip), vehicle: saline): 104 % of control; T/C (endpoint: mean survival time, dose: 12.5 mg/kg/injection, schedule: Q01DX009 (ip), vehicle: saline): 118 % of control and 122 % of control; T/C (endpoint: mean survival time, dose: 16.0 mg/kg/injection, schedule: Q01DX009 (ip), vehicle: saline): 155 % of control; T/C (endpoint: mean survival time, dose: 25.0 mg/kg/injection, schedule: Q01DX009 (ip), vehicle: saline): 92 % of control; T/C (endpoint: mean survival time, dose: 100.0 mg/kg/injection, schedule: Q04DX003 (ip), vehicle: water): 153 % of control; T/C (endpoint: median survival time, dose: 0.5 mg/kg/injection, schedule: Q01DX009 (ip), vehicle: saline): 122 % of control; T/C (endpoint: median survival time, dose: 1.0 mg/kg/injection, schedule: Q01DX009 (ip), vehicle: saline): 163 % of control; T/C (endpoint: median survival time, dose: 2.0 mg/kg/injection, schedule: Q01DX009 (ip), vehicle: saline): 180 % of control; T/C (endpoint: median survival time, dose: 3.0 mg/kg/injection, schedule: Q01DX009 (ip), vehicle: saline): 152 % of control; T/C (endpoint: median survival time, dose: 4.0 mg/kg/injection, schedule: Q01DX009 (ip), vehicle: saline): 150 % of control; T/C (endpoint: median survival time, dose: 6.0 mg/kg/injection, schedule: Q01DX009 (ip), vehicle: saline): 114 % of control and 109 % of control; T/C (endpoint: median survival time, dose: 16.0 mg/kg/injection, schedule: Q01DX009 (ip), vehicle: saline): 123 % of control; T/C (endpoint: median survival time, dose: 24.0 mg/kg/injection, schedule: Q01DX009 (ip), vehicle: saline): 72 % of control

Q: `O=C1NC(=O)C2C3C=CC(C3)C12` (stereo not given) was tested. Which T/C (endpoint: mean survival time, dose: 12.5 mg/kg/injection, schedule: Q04DX002 (ip), vehicle: saline with Tween-80) did it give?
A: 93 % of control

Q: What about the T/C (endpoint: mean survival time, dose: 25.0 mg/kg/injection, schedule: Q04DX002 (ip), vehicle: saline with Tween-80) of the same compound?
A: 93 % of control

Q: What about the T/C (endpoint: mean survival time, dose: 50.0 mg/kg/injection, schedule: Q04DX002 (ip), vehicle: saline with Tween-80) of the same compound?
A: 97 % of control

Q: And the T/C (endpoint: mean survival time, dose: 100.0 mg/kg/injection, schedule: Q01DX009 (ip), vehicle: saline sonified)?
A: 96 % of control

Q: And the T/C [1]?
A: 94 % of control

Q: And the T/C (endpoint: mean survival time, dose: 200.0 mg/kg/injection, schedule: Q01DX009 (ip), vehicle: saline sonified)?
A: 96 % of control

Q: What about the T/C [2] of the same compound?
A: 101 % of control

Q: What about the T/C (endpoint: mean survival time, dose: 400.0 mg/kg/injection, schedule: Q01DX009 (ip), vehicle: saline sonified) of the same compound?
A: 98 % of control

Q: And the T/C [3]?
A: 100 % of control

Q: Which T/C (endpoint: mean survival time, dose: 100.0 mg/kg/injection, schedule: Q04DX002 (ip), vehicle: saline) does the source give for `CC(C)(C)C1OCCCO1` here?
A: 104 % of control

Q: And the T/C (endpoint: mean survival time, dose: 200.0 mg/kg/injection, schedule: Q04DX002 (ip), vehicle: saline)?
A: 110 % of control

Q: And the T/C (endpoint: mean survival time, dose: 400.0 mg/kg/injection, schedule: Q04DX002 (ip), vehicle: saline)?
A: 104 % of control

Q: With `CC1(C)OCC(C2OC3OC(C)(C)OC3C2O)O1` (stereo not given) as the compound, how does the T/C (endpoint: mean survival time, dose: 100.0 mg/kg/injection, schedule: Q01DX001 (ip), vehicle: saline) read?
A: 105 % of control

Q: What about the T/C [1] of the same compound?
A: 100 % of control

Q: What about the T/C (endpoint: mean survival time, dose: 100.0 mg/kg/injection, schedule: Q04DX003 (ip), vehicle: saline) of the same compound?
A: 97 % of control

Q: And the T/C (endpoint: mean survival time, dose: 200.0 mg/kg/injection, schedule: Q01DX001 (ip), vehicle: saline)?
A: 103 % of control

Q: And the T/C [2]?
A: 95 % of control

Q: And the T/C (endpoint: mean survival time, dose: 200.0 mg/kg/injection, schedule: Q04DX003 (ip), vehicle: saline)?
A: 96 % of control

Q: And the T/C (endpoint: mean survival time, dose: 400.0 mg/kg/injection, schedule: Q01DX001 (ip), vehicle: saline)?
A: 103 % of control

Q: And the T/C [3]?
A: 103 % of control

Q: What about the T/C (endpoint: mean survival time, dose: 400.0 mg/kg/injection, schedule: Q04DX003 (ip), vehicle: saline) of the same compound?
A: 100 % of control

— PubChem BioAssay AID256 (DTP/NCI, 2004)
